Laboratory results published in ChEMBL document CHEMBL4507293 (2021).

Tests used:
[1] = target: Serine/threonine-protein kinase tousled-like 1 (Homo sapiens) (UniProt Q9UKI8); conditions: Compound concentration 100.0 nM
[2] = target: Serine/threonine-protein kinase BRSK2 (Homo sapiens) (UniProt Q8IWQ3); conditions: Compound concentration 100.0 nM
[3] = target: Serine/threonine-protein kinase TAO1 (Homo sapiens) (UniProt Q7L7X3); conditions: Compound concentration 100.0 nM
[4] = target: Serine/threonine-protein kinase Nek3 (Homo sapiens) (UniProt P51956); conditions: Compound concentration 100.0 nM
[5] = target: Protein kinase C epsilon type (Homo sapiens) (UniProt Q02156); conditions: Compound concentration 100.0 nM
[6] = target: Vascular endothelial growth factor receptor 2 (Homo sapiens) (UniProt P35968); conditions: Compound concentration 100.0 nM
[7] = target: cGMP-specific 3',5'-cyclic phosphodiesterase (Homo sapiens, UniProt O76074); assay: Biochemical assay (PDE5A)
[8] = target: Serine/threonine-protein kinase N1 (Homo sapiens) (UniProt Q16512); conditions: Compound concentration 100.0 nM
[9] = target: Serine/threonine-protein kinase WNK4 (Homo sapiens) (UniProt Q96J92); conditions: Compound concentration 100.0 nM
[10] = target: Phosphatidylinositol 3-kinase catalytic subunit type 3 (Homo sapiens) (UniProt Q8NEB9); conditions: Compound concentration 100.0 nM
[11] = target: Vascular endothelial growth factor receptor 3 (Homo sapiens) (UniProt P35916); conditions: Compound concentration 100.0 nM
[12] = target: MAP kinase-activated protein kinase 5 (Homo sapiens) (UniProt Q8IW41); conditions: Compound concentration 100.0 nM
[13] = target: RAC-alpha serine/threonine-protein kinase (Homo sapiens) (UniProt P31749); conditions: Compound concentration 100.0 nM
[14] = target: T1, Alpha-1A adrenergic receptor (Homo sapiens) (UniProt P35348); conditions: Compound concentration 10.0 uM
T1 sequence (whole entry): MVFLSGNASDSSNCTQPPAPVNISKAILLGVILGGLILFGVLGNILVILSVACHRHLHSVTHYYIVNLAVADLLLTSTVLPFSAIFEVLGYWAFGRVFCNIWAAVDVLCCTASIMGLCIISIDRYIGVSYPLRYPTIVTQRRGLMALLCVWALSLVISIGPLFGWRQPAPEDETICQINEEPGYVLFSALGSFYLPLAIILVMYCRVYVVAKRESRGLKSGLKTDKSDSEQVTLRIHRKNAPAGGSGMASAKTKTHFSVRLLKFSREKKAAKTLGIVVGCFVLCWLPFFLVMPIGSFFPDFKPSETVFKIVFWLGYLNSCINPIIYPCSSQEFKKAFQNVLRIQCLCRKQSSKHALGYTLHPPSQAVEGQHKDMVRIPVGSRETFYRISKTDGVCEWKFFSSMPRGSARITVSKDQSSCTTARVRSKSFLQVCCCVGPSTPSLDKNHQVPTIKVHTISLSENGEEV

[15] = target: Serine/threonine-protein kinase Chk1 (Homo sapiens) (UniProt O14757); conditions: Compound concentration 100.0 nM
[16] = target: Calcium-dependent protein kinase 1 (Plasmodium falciparum) (UniProt P62344); conditions: Compound concentration 100.0 nM
[17] = target: Ribosomal protein S6 kinase alpha-5 (Homo sapiens) (UniProt O75582); conditions: Compound concentration 100.0 nM
[18] = target: Serine/threonine-protein kinase RIO2 (Homo sapiens) (UniProt Q9BVS4); conditions: Compound concentration 100.0 nM
[19] = target: Dual serine/threonine and tyrosine protein kinase (Homo sapiens) (UniProt Q6XUX3); conditions: Compound concentration 100.0 nM
[20] = target: Death-associated protein kinase 2 (Homo sapiens) (UniProt Q9UIK4); conditions: Compound concentration 100.0 nM
[21] = target: Calcium/calmodulin-dependent protein kinase type II subunit alpha (Homo sapiens) (UniProt Q9UQM7); conditions: Compound concentration 100.0 nM
[22] = target: TGF-beta receptor type-2 (Homo sapiens) (UniProt P37173); conditions: Compound concentration 100.0 nM
[23] = target: Ephrin type-A receptor 7 (Homo sapiens) (UniProt Q15375); conditions: Compound concentration 100.0 nM
[24] = target: Sigma intracellular receptor 2 (Homo sapiens, UniProt Q5BJF2); assay: GPCRScan assay: inhibition of Sigma 2; set-up: radioligand conc. used [nm] 5.0, parental cells HEKT
[25] = target: Serine/threonine-protein kinase TAO3 (Homo sapiens) (UniProt Q9H2K8); conditions: Compound concentration 100.0 nM
[26] = target: Glycogen synthase kinase-3 beta (Homo sapiens) (UniProt P49841); conditions: Compound concentration 100.0 nM
[27] = target: Serine/threonine-protein kinase DCLK3 (Homo sapiens) (UniProt Q9C098); conditions: Compound concentration 100.0 nM
[28] = target: Serine/threonine-protein kinase PAK 1 (Homo sapiens) (UniProt Q13153); conditions: Compound concentration 100.0 nM
[29] = target: Serine/threonine-protein kinase MARK2 (Homo sapiens) (UniProt Q7KZI7); conditions: Compound concentration 100.0 nM
[30] = target: Alpha-1B adrenergic receptor (Homo sapiens) (UniProt P35368); conditions: Compound concentration 10.0 uM
[31] = target: Dual specificity mitogen-activated protein kinase kinase 4 (Homo sapiens) (UniProt P45985); conditions: Compound concentration 100.0 nM
[32] = test system: Receptor-type tyrosine-protein kinase FLT3 (Homo sapiens), P36888 [D835Y]; conditions: Compound concentration 100.0 nM
[33] = test system: Phosphatidylinositol 4,5-bisphosphate 3-kinase catalytic subunit alpha isoform (Homo sapiens), P42336 [E545A]; conditions: Compound concentration 100.0 nM
[34] = target: cGMP-dependent protein kinase 1 (Homo sapiens) (UniProt Q13976); conditions: Compound concentration 100.0 nM
[35] = target: Insulin-like growth factor 1 receptor (Homo sapiens) (UniProt P08069); conditions: Compound concentration 100.0 nM
[36] = target: Muscle, skeletal receptor tyrosine-protein kinase (Homo sapiens) (UniProt O15146); conditions: Compound concentration 100.0 nM
[37] = test system: Epidermal growth factor receptor (Homo sapiens), P00533 [G719C]; conditions: Compound concentration 100.0 nM
[38] = target: Protein kinase C theta type (Homo sapiens) (UniProt Q04759); conditions: Compound concentration 100.0 nM
[39] = test system: Receptor-type tyrosine-protein kinase FLT3 (Homo sapiens), P36888 [N841I]; conditions: Compound concentration 100.0 nM

Chain of Protein kinase C theta type (Homo sapiens) (Q04759 whole entry, looked up): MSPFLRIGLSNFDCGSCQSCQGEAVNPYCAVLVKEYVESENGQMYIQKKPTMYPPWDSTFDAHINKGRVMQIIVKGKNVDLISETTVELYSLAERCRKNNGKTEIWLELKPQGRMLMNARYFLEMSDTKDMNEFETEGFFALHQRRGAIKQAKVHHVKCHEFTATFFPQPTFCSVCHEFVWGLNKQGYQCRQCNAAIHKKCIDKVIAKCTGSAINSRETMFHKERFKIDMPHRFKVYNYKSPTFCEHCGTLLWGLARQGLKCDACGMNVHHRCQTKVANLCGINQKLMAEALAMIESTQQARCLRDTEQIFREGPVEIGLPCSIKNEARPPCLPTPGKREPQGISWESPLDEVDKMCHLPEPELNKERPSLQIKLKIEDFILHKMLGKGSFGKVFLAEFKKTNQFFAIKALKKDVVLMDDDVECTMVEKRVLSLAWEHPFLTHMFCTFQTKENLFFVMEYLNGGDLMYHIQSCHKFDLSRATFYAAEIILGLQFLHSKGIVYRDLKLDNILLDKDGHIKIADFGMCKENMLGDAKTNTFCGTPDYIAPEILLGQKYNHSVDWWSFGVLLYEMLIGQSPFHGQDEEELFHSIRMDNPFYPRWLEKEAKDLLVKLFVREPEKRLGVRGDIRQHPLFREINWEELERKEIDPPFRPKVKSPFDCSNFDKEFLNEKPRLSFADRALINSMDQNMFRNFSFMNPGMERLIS
Chain of Muscle, skeletal receptor tyrosine-protein kinase (Homo sapiens) (O15146 whole entry): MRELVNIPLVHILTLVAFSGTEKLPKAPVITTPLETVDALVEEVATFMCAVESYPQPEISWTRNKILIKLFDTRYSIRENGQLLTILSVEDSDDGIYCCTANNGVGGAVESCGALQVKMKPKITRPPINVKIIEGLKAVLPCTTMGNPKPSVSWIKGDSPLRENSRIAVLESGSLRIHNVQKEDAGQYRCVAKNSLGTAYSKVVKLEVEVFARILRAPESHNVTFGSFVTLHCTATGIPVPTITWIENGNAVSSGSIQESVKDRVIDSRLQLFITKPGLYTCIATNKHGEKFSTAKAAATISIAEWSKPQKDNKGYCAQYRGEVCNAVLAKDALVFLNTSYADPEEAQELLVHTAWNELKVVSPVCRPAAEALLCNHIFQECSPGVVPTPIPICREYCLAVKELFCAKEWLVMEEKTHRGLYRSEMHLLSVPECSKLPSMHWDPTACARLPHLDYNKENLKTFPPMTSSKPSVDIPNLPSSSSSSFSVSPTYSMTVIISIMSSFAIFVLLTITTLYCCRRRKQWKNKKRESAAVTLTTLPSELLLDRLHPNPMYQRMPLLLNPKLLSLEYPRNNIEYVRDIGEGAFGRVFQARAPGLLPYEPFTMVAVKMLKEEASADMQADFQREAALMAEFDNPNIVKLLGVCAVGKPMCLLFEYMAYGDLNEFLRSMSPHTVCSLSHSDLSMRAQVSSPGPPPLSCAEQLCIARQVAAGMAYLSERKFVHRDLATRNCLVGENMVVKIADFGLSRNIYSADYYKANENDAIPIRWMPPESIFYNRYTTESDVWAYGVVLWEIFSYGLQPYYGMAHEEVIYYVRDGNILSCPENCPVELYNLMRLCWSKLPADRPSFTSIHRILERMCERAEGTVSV
Chain of Serine/threonine-protein kinase N1 (Homo sapiens) (Q16512 2-942 limits assumed): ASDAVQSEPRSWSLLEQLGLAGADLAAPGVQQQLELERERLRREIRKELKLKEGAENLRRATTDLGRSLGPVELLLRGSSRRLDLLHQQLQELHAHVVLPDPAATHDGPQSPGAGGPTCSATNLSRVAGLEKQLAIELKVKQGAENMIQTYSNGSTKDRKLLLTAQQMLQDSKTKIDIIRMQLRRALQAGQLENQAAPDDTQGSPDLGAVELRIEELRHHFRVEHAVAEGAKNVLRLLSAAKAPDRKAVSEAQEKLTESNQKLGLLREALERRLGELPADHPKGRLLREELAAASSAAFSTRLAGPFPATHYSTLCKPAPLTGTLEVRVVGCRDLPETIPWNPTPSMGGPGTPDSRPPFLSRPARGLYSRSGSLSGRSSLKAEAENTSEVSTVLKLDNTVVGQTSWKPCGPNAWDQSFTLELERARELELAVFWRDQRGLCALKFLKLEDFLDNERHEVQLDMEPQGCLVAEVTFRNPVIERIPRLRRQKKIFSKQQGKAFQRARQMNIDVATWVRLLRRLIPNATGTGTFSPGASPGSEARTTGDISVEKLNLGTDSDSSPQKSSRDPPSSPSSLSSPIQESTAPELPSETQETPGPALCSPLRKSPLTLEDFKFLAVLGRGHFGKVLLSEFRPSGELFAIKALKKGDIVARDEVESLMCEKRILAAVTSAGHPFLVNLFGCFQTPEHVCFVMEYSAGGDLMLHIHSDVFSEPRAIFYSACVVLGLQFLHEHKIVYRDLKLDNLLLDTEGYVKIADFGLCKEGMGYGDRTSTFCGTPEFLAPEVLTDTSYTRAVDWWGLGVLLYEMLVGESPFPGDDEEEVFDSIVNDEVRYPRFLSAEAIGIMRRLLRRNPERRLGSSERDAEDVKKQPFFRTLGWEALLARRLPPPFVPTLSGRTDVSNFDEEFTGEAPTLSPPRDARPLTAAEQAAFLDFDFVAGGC
Chain of Serine/threonine-protein kinase RIO2 (Homo sapiens) (Q9BVS4 whole entry, looked up): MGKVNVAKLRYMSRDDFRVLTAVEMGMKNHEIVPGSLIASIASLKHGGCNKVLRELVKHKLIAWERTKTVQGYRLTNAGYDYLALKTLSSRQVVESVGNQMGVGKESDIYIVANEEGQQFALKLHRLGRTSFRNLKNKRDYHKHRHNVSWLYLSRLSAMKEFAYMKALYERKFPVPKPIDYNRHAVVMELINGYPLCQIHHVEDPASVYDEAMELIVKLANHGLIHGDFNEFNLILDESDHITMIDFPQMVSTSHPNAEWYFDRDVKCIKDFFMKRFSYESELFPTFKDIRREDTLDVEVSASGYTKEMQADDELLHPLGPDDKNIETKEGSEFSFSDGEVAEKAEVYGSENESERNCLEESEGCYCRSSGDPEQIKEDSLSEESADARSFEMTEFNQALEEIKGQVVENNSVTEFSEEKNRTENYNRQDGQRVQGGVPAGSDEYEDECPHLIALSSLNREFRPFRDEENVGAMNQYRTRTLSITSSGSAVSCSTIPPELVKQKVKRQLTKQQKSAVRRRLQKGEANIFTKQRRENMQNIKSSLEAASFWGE
Chain of TGF-beta receptor type-2 (Homo sapiens) (P37173 whole entry): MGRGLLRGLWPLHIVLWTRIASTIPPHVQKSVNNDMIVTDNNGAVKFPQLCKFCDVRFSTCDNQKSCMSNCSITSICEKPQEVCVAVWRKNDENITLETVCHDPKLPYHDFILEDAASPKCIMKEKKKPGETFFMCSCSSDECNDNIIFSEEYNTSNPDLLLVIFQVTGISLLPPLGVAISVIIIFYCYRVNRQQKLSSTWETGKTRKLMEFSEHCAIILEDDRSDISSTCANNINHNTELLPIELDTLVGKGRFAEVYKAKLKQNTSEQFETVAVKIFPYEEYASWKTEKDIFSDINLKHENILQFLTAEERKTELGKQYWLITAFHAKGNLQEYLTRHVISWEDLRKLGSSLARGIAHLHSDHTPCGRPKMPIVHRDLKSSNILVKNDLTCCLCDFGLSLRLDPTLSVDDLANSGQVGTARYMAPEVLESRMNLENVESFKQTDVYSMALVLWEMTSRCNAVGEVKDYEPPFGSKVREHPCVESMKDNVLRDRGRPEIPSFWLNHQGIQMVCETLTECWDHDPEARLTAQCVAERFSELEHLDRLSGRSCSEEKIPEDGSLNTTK
Chain of Serine/threonine-protein kinase TAO1 (Homo sapiens) (Q7L7X3 whole entry): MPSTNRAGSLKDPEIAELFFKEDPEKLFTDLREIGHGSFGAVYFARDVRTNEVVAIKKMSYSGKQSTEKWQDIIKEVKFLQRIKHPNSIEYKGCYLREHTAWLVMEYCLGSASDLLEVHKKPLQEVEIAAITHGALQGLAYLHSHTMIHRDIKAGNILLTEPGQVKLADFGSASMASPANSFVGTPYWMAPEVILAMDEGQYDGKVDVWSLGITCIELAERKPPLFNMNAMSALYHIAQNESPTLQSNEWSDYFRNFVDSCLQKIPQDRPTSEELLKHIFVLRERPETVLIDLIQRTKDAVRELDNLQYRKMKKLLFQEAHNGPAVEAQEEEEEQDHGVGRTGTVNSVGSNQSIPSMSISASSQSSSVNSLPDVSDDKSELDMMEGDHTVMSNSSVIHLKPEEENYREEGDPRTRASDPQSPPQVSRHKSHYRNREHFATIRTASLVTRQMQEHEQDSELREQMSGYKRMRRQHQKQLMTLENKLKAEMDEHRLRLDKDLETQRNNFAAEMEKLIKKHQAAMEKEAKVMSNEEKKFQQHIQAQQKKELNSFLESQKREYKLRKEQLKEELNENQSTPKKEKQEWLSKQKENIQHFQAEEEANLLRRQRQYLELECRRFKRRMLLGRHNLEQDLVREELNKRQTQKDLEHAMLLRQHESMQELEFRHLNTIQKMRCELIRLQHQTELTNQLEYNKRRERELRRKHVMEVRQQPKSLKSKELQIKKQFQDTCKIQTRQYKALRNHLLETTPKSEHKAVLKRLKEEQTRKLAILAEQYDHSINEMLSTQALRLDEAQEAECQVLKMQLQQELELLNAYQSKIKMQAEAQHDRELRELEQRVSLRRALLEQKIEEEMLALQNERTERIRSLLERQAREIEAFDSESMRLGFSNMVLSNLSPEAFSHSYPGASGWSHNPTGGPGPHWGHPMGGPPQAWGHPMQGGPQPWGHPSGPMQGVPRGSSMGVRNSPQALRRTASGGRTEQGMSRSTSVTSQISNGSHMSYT
Chain of Sigma intracellular receptor 2 (Q5BJF2 whole entry): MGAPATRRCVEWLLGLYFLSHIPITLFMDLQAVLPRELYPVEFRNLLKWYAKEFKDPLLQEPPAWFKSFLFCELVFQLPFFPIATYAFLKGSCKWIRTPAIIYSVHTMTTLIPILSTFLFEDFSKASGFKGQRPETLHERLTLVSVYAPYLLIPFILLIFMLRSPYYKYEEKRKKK

SMILES | residual activity [1] | residual activity [2] | residual activity [3] | residual activity [4] | residual activity [5] | residual activity [6] | Ki [7] | residual activity [8] | residual activity [9] | residual activity [10] | residual activity [11] | residual activity [12] | residual activity [13] | inhibition [14] | residual activity [15] | residual activity [16] | residual activity [17] | residual activity [18] | residual activity [19] | residual activity [20] | also measured
CC(C)CC(=O)N1CCc2nc(-c3ccc(Br)cc3)nc(N(C)Cc3ccccc3)c2C1 [THPP-1-NC] | 100% | 94% | 100% | 100% | 100% | 100% | 6.89 µM (not active) | 100% | 100% | 100% | 100% | 100% | 92% | -1.11% | 100% | 100% | 100% | 100% | 100% | 100% | residual activity [21]: 100%; residual activity [22]: 97%; residual activity [23]: 99%; Ki [24]: 0.708 µM; residual activity [25]: 100%; residual activity [26]: 100%; residual activity [27]: 100%; residual activity [28]: 100%; residual activity [29]: 100%; inhibition [30]: 17.5%; residual activity [31]: 97%; residual activity [32]: 100%; residual activity [33]: 100%; residual activity [34]: 74%; residual activity [35]: 83%; residual activity [36]: 100%; residual activity [37]: 100%; residual activity [38]: 100%; residual activity [39]: 100%
COCCOc1nc(-c2ccc(Cl)nc2)nc2c1CN(C(=O)c1ncn3ccccc13)CC2 [THPP-1] | 100% | 93% | 100% | 100% | 89% | 100% | 0.116 µM | 100% | 100% | 100% | 88% | 100% | 82% | 12.7% | 100% | 100% | 100% | 100% | 100% | 100% | residual activity [21]: 100%; residual activity [22]: 94%; residual activity [23]: 100%; Ki [24]: 3.35 µM; residual activity [25]: 100%; residual activity [26]: 100%; residual activity [27]: 100%; residual activity [28]: 100%; residual activity [29]: 100%; inhibition [30]: 10.8%; residual activity [31]: 100%; residual activity [32]: 100%; residual activity [33]: 100%; residual activity [34]: 87%; residual activity [35]: 82%; residual activity [36]: 100%; residual activity [37]: 85%; residual activity [38]: 100%; residual activity [39]: 100%
